From patent publication US12351587B2, “Bicyclic compound as RIP-1 kinase inhibitor and application thereof” (MEDSHINE DISCOVERY INC., priority 2019, dated 2025) come the findings set out here.

In data set [1] the test system is U937 cells. Kind of data set: U937 cell activity assay: TNFα/QVD-OPh-induced programmed cell necrosis (necroptosis). The class given is cell-based, human. The conditions noted are these: QVD-OPh 25 μM + TNF-α 100 ng/mL, CellTiter Glo. The protocol: 1.2 Instrument and Materials
Envision plate reader (Perkin Elmer, Cat #2104-0010)
1.3 Formulation of Reagents • (1) 1×DPSB: To 100 mL of 10×DPBS was added 900 mL of deionized water. • (2) 1640 complete medium: To 89 mL of RPMI-1640 medium were added 10 mL of FBS and 1 mL of penicillin/streptomycin 2. Assay Steps • 1. U937 cells were centrifuged, and then the medium was discarded. The cells were resuspended in 1640 complete medium and counted. The cell concentration was adjusted to 5×10^5 cells/mL for use, and the cells were arranged according to compounds to be assayed. • 2. To the prepared resuspension of U937 cells were added QVD-OPh at a final concentration of 25 μM and TNF-α at a final concentration of 100 ng/mL, and then the mixture was mixed gently. • 3. To a 384-well plate was added 30 μL/well of U937 cells containing 25 μM of QVD-OPh and TNF-α at a final concentration of 100 ng/mL, and blank control wells without QVD-OPh and TNF-α were set up. • 4. To the dosing group […] added 10 μL of the assay compound at 4 times the preset concentration, and to the blank control well was added DMSO at the corresponding concentration. • 5. The 384-well plate was placed in a 37° C. and 5% CO2 cell incubator for 24 hours. • 6. After 24 hours, the 384-well plate was taken out and equilibrated at room temperature for 20 minutes. • 7. 40 μL of CTG was added to each well, and then the plate was shaken on a shaker in the dark for 2 minutes. • 8. The plate was incubated at room temperature in the dark for 10 minutes, and then read using an Envision plate reader.

Data set [2] has as its system L929 cells. The experiment in a line: In vitro activity assay of mouse RIP1: L929 cell TNFα/QVD-OPh-induced necroptosis. The class given is cell-based. The conditions noted are these: TNF-α 50 ng/mL + Q-VD 50 μM, 24 h, CellTiter Glo. Here is the method: Assay Example 2: In Vitro Activity Assay of Mouse RIP1
L929 (purchased from ATCC, Item No.: CCL-1)
Instrument Microplate reader (Perkin Elmer, Envision) Formulation of Reagents L929 cell complete medium: EMEM+10% horse serum (volume ratio)+1% double antibiotics (volume ratio) Assay Step • 1. The cultured L929 cells were digested with trypsin, centrifuged, resuspended in complete culture medium, and then counted. The cell concentration was then diluted to 1×10^5/mL with complete culture medium. • 2. The cell suspension was added to a 96-well plate at 100 μL per well and incubated at 37° C. and 5% CO2 for 24 h. • 3. Different concentrations of assay compounds were added to each well, and dimethyl sulfoxide was added to the control group. The plate was incubated at 37° C. and 5% CO2 for 1 h. • 4. To each well were added TNF-α at a final concentration of 50 ng/mL and Q-VD at a final concentration of 50 μM, and the plate was incubated at 37° C. and 5% CO2 for 24 h. • 5. To each well was added 50 μL of CellTiter Glo […], and the plate was shaken in the dark for 10 min. • 6. The plate was read on the microplate reader.
Background: ATP-based viability assays read luminescence as a measure of living cells.

A short description of data set [3]: Pharmacokinetic parameters in dogs. The format is in vivo. Particulars: beagle, plasma, dog. The protocol:
Four healthy adult beagle dogs were selected and randomly divided into two groups. One group was given the assay compound by intravenous injection, and the other group was given the assay compound by gavage. Plasma samples were collected respectively from animals in the intravenous group and gavage group at 0.083, 0.25, 0.5, 1.0, 2.0, 4.0, 6.0, 8.0, 24 hours after administration. The blood concentration was determined by LC-MS/MS method. Relevant pharmacokinetic parameters were calculated by WinNonlin™ Version 6.3 (Pharsight. Mountain View, CA) pharmacokinetic software using non-compartmental model and linear logarithmic trapezoidal method. AUC0-last represents the area under the plasma concentration-time curve from zero time point to the last detectable concentration time point; Cmax represents the peak concentration; Tmax represents the time to reach the peak; T1/2 represents the half-life; CL represents the clearance rate; Vdss represents apparent volume of distribution; p.o. represents per os; i.v. represents intravenous injection; and F % represents oral bioavailability.

By IC50 is commonly meant the concentration that inhibits the measured activity by half. For orientation: AUC(0-t) means exposure summed from dosing to a finite time, without extrapolation to infinity. The low end stands for low exposure, the high end for high exposure. By clearance is commonly meant the volume of plasma or blood freed of the substance per unit of time. Read a high clearance as efficient removal. Broadly, the half-life is how long it takes for the measured level to halve. Lower therefore signals rapid decline. Broadly, the bioavailability is the share of a dose that reaches the circulation, judged against a reference dose that is usually intravenous. Low values mean poor availability, high ones good availability. For the molecule `CN1C(=S)[C@@H](NC(=O)c2nc3n(n2)[C@H](c2ccccc2)CC3)COc2cccnc21` [WX013], in data set [1] (Homo sapiens, U-937, 24 h), the IC50 was 1.8 nM. Further, the IC50 in data set [2] came out at 0.014 µM. In data set [3] (1 mg/kg, iv = 1 mpk), this molecule gave an AUC(0-t) of 7.42 µM·h, a clearance of 5.18 mL/min/kg and a half-life of 4.89 h. Also, the Vd in data set [3] (1 mg/kg, iv = 1 mpk, read-out: Vdss) came out at 2.02 L/kg. This molecule also came in with an AUC(0-t) in data set [3] (5 mg/kg, po = 5 mpk) of 27.7 µM·h. The molecule also had a bioavailability in data set [3] (po = 5 mpk vs iv = 1 mpk) of 80.1%. In the case of `CN1C(=S)[C@@H](NC(=O)c2ncn(Cc3cccc(Br)c3)n2)COc2cccnc21` [WX037], the IC50 in data set [1] (Homo sapiens, U-937, 24 h) worked out at 24 nM. Same read-out and setting: then `CN1C(=S)[C@@H](NC(=O)c2ncn(Cc3cc(F)cc(F)c3)n2)COc2cccnc21` [WX034], with 3.7 nM; and `COc1cccc(Cn2cnc(C(=O)N[C@H]3COc4cccnc4N(C)C3=S)n2)c1` [WX042], with 24.8 nM; and `CN1C(=S)[C@@H](NC(=O)c2ncn(Cc3ccccc3)n2)COc2ccncc21` [WX025], with 12 nM.

As for `CN1C(=S)[C@@H](NC(=O)c2ncn(Cc3ccccc3F)n2)COc2cc(Cl)cnc21` [WX022], the IC50 in data set [1] (Homo sapiens, U-937, 24 h) was determined as 20 nM. As for `CN1C(=S)[C@@H](NC(=O)c2ncn(Cc3cccc(C#N)c3)n2)COc2cccnc21` [WX032], the half-maximal inhibitory concentration (IC50) in data set [1] (Homo sapiens, U-937, 24 h) worked out at 5.7 nM; in data set [2], 0.255 µM. On the same counts, the results for `CN1C(=S)[C@@H](NC(=O)c2ncn(Cc3ccccc3F)n2)COc2cccnc21` [WX019] are 0.6 nM and 0.051 µM. As to `CN1C(=S)[C@@H](NC(=O)c2cc(Oc3ccccc3)ccn2)COc2cccnc21` [WX026], in data set [1] (Homo sapiens, U-937, 24 h), the IC50 amounted to 5 nM. `CN1C(=S)[C@@H](NC(=O)c2ncn(Cc3ccc(C(F)(F)F)cc3)n2)COc2cccnc21` [WX041]: the IC50 in data set [1] (Homo sapiens, U-937, 24 h) was 86.5 nM.

In the case of `CN1C(=S)[C@@H](NC(=O)c2cc(Cc3ccccc3)on2)COc2cccnc21` [WX007], the IC50 in data set [1] (Homo sapiens, U-937, 24 h) was 70 nM. Same read-out and setting: for `Cc1nc(C(=O)N[C@H]2COc3cccnc3N(C)C2=S)nn1Cc1ccccc1` [WX016] the value was 9.8 nM. For `CN1C(=S)[C@@H](NC(=O)c2nc(Cc3ccccc3)n[nH]2)COc2cccnc21` [WX003], the IC50 was 0.5 nM in data set [1] (Homo sapiens, U-937, 24 h) and 1.21 µM in data set [2]. On the same counts, the results for `CN1C(=S)[C@@H](NC(=O)c2ncn(Cc3cccc(F)c3)n2)COc2cccnc21` [WX029] are 2.2 nM and 0.184 µM.

For the molecule `CN1C(=S)[C@@H](NC(=O)c2nc(Cc3cccc(C#N)c3)n[nH]2)COc2ccccc21` [WX002], in data set [1] (Homo sapiens, U-937, 24 h), the IC50 is 1.8 nM. As to `CN1C(=S)[C@@H](NC(=O)c2ncn(Cc3ccccc3)n2)COc2cc(Br)cnc21` [WX023], the IC50 in data set [1] (Homo sapiens, U-937, 24 h) was 29 nM.

Regarding `[2H]C([2H])([2H])N1C(=S)[C@@H](NC(=O)c2n[nH]c(Cc3ccccc3)n2)COc2cccnc21` [WX005], the IC50 in data set [1] (Homo sapiens, U-937, 24 h) was 2 nM; in data set [2], 1.31 µM. `CN1C(=S)[C@@H](NC(=O)c2ncn(CC34CC(F)(C3)C4)n2)COc2cccnc21` [WX017]: the IC50 in data set [1] (Homo sapiens, U-937, 24 h) was determined as 59 nM.

In the case of `CN1C(=S)[C@@H](NC(=O)c2ncn(Cc3ccccc3)n2)COc2ccc(C(=O)O)cc21` [WX024], in data set [1] (Homo sapiens, U-937, 24 h), the IC50 came to 43 nM.

For `CN1C(=S)[C@@H](NC(=O)c2ncn(Cc3ccc(F)cc3)n2)COc2cccnc21` [WX031], the IC50 was determined as 2.4 nM in data set [1] (Homo sapiens, U-937, 24 h) and 0.174 µM in data set [2]. For `CN1C(=S)[C@@H](NC(=O)c2nc(Cc3cccc(C#N)c3)n[nH]2)COc2cccnc21` [WX004], the IC50 in data set [1] (Homo sapiens, U-937, 24 h) turned out to be 0.3 nM. Regarding `CN1C(=S)[C@@H](NC(=O)c2nc3n(n2)CCO[C@H]3c2ccccc2)COc2cccnc21` (single isomer, unassigned) [WX028], the IC50 is 4.7 nM in data set [1] (Homo sapiens, U-937, 24 h) and 0.065 µM in data set [2]. `CN1C(=S)[C@@H](NC(=O)c2ncn(Cc3cccc(Cl)c3)n2)COc2cccnc21` [WX036]: the IC50 in data set [1] (Homo sapiens, U-937, 24 h) turned out to be 6.4 nM. With `Cc1ccccc1Cn1cnc(C(=O)N[C@H]2COc3cccnc3N(C)C2=S)n1` [WX035], in data set [1] (Homo sapiens, U-937, 24 h), the IC50 was 4.9 nM.

For `COc1ccccc1Cn1cnc(C(=O)N[C@H]2COc3cccnc3N(C)C2=S)n1` [WX027], the IC50 in data set [1] (Homo sapiens, U-937, 24 h) is 20 nM. Turning to `CN1C(=S)[C@@H](NC(=O)c2ncn(Cc3ccccc3)n2)COc2cc(Cl)cnc21` [WX021], the IC50 in data set [1] (Homo sapiens, U-937, 24 h) worked out at 13 nM; in data set [2], 0.445 µM. As for `CN1C(=S)[C@@H](NC(=O)c2nnn(Cc3ccccc3)n2)COc2cccnc21` [WX015], the IC50 in data set [1] (24 hours) was determined as 5.1 nM. As for `CN1C(=S)[C@@H](NC(=O)c2nnn(Cc3ccccc3)n2)COc2cccnc21` [WX018], the half-maximal inhibitory concentration (IC50) in data set [1] (24 hours) was 1.3 nM. Regarding `CN1C(=S)[C@@H](NC(=O)c2ncn(Cc3ccccc3)n2)COc2ccc(C(N)=O)cc21` [WX040], in data set [1] (Homo sapiens, U-937, 24 h), the concentration for half-maximal inhibition (IC50) was 4.8 nM. Take `CN1C(=S)[C@@H](NC(=O)c2ncn(Cc3c(F)cccc3F)n2)COc2cccnc21` [WX020]: the IC50 in data set [1] (Homo sapiens, U-937, 24 h) worked out at 0.6 nM; in data set [2], 0.029 µM. The like results for `CN1C(=S)[C@@H](NC(=O)c2nc(Cl)n(Cc3ccccc3)n2)COc2cccnc21` [WX011] were, in that order, 1.7 nM and 0.011 µM. As for `O=C(N[C@H]1CCc2cc(F)cc(F)c2NC1=S)c1nc(Cc2ccccc2)n[nH]1` [WX014], the IC50 in data set [1] (Homo sapiens, U-937, 24 h) was 3.7 nM. Regarding `CN1C(=S)[C@@H](NC(=O)c2nc(Cc3ccccc3)n[nH]2)COc2ccccc21` [WX001], the concentration for half-maximal inhibition (IC50) in data set [1] (Homo sapiens, U-937, 24 h) was determined as 0.5 nM; in data set [2] it was 1.16 µM. The like results for `CN1C(=S)[C@@H](NC(=O)c2nc(Cl)n(Cc3cccc(C#N)c3)n2)COc2cccnc21` [WX008] were, in that order, 8.1 nM and 0.047 µM.

Consider `CN1C(=S)[C@@H](NC(=O)c2cn(Cc3ccccc3)nn2)COc2cccnc21` [WX010], for which the IC50 in data set [1] (Homo sapiens, U-937, 24 h) worked out at 47 nM. Regarding `Cc1ccc(Cn2cnc(C(=O)N[C@H]3COc4cccnc4N(C)C3=S)n2)cc1` [WX039], the IC50 came to 3.4 nM in data set [1] (Homo sapiens, U-937, 24 h) and 0.064 µM in data set [2].

Turning to `Cc1cccc(Cn2cnc(C(=O)N[C@H]3COc4cccnc4N(C)C3=S)n2)c1` [WX033], the IC50 in data set [1] (Homo sapiens, U-937, 24 h) was determined as 7.6 nM. With `CN1C(=S)[C@@H](NC(=O)c2nnc(Cc3ccccc3)o2)COc2cccnc21` [WX012], the IC50 in data set [1] (Homo sapiens, U-937, 24 h) was 12.1 nM. With `CN1C(=S)[C@@H](NC(=O)c2ncn(Cc3ccc(OC(F)(F)F)cc3)n2)COc2cccnc21` [WX038], the IC50 in data set [1] (Homo sapiens, U-937, 24 h) amounted to 238 nM. In the case of `CN1C(=S)[C@@H](NC(=O)c2cn(Cc3ccccc3)cn2)COc2cccnc21` [WX006], the IC50 in data set [1] (Homo sapiens, U-937, 24 h) is 9 nM.

Regarding `COc1ccc(Cn2cnc(C(=O)N[C@H]3COc4cccnc4N(C)C3=S)n2)cc1` [WX030], the IC50 in data set [1] (Homo sapiens, U-937, 24 h) worked out at 15.6 nM.
